Results published in a melting point compilation (Tetko et al.; mined from patent text by program, amines drawn as free bases though some values may be those of a salt).

Row | melting point [°C] | Structure (SMILES)
1 | 147 to 150 | CC(C)(C(=O)O)C(=O)Oc1ccc(C(=O)c2ccccc2)cc1
2 | 106 to 110 | CCCCn1c(=O)c(NC(=O)Nc2c(C(C)C)cccc2C(C)C)c(-c2cccc(OCCO)c2)c2cccnc21
3 | 129 to 131 | OCC1(Nc2nc(-c3ccc(Br)cc3)cs2)CC1
4 | 70 to 72 | O=C(OCC1OCCS1=O)c1ccccc1 (stereo not drawn)
5 | 155 to 160 | O=C(O)CCC(=O)c1ccc(O)c(Cl)c1
6 | 65 to 68 | OC(CNC1CCc2ccccc2C1)COc1cccc2[nH]ccc12 (stereo not drawn)
7 | 38 to 40 | Cc1ccc(S(=O)(=O)OCCCCO[N+](=O)[O-])cc1
8 | 138 to 140 | Cc1ccc(O)c(NC(=O)c2ccc(OCCCCc3ccccc3)cc2)c1
9 | 153 to 156 | N=C(Nc1ccc(Cl)cc1)Nc1ncccc1OCc1c(F)ccc(F)c1F
10 | 149 to 151 | C=C(C)Cc1cc(NC(C)=O)c(C)c(C)c1O
11 | 135 to 137 | CCNC(=O)c1c(I)cccc1[Si](C)(C)C
12 | 255 to 258 | Cc1nc2cnccc2n1-c1ccc(OCc2cccc(C(=O)O)c2)cc1
13 | 264 | Cn1cc(C(=O)O)c(=O)c2cc3cc(F)c(N4CCNC(c5ccccc5F)C4)cc3nc21 (racemic)
14 | 98 to 101 | Nc1ccc(-c2ncc(NC(=O)OCc3ccccc3)c(=O)n2CC(=O)NC(Cc2ccccc2)C(=O)C(F)(F)F)cc1 (stereo not drawn)
15 | 110 | COc1ccc(C2(Cn3ccn(Cc4ccccc4)c3=O)CC2)cc1OC
16 | 144 | COC(=O)n1cc(Cl)c(-c2cc(Cl)cc(Cl)c2)n1
17 | 164 | Nc1c2c(nc3ccccc13)CCCC2OCCBr (stereo not drawn)
18 | 190 to 192 | COc1cc(Cc2cnc(NOC3CCCCO3)nc2NO)cc(OC)c1OC (stereo not drawn)
19 | 126 to 127 | CCc1cccc(CC(=O)O)c1OCCCc1cn(-c2ccc(C(F)(F)F)nn2)nc1C(C)C
20 | 105 | O=C(O)c1nc(-c2ccc(Cl)cc2Cl)c(-c2ccccc2)s1
21 | 180 to 182 | Cc1cc2c(cc1C1=NNC(=O)CC1C)N(C)C(=O)CO2 (stereo not drawn)
22 | 175 to 176 | COc1nc(-c2ccccc2F)c2ccsc2n1
23 | 290 | CC(=O)Nc1ccc(S(=O)(=O)NC23CC4CC(CC(C4)C2)C3)cc1

Row | melting point [°C] | Structure (SMILES)
24 | 183 to 184 | Nc1cccc(-c2ccnc3c(C(=O)c4cccs4)cnn23)c1
25 | 173 | CC1=N/C(=C\c2cccnc2)C(=O)O1
26 | 168 to 169 | CC(C#Cc1cc2ccccc2s1)N(O)C(N)=O (stereo not drawn)
27 | 166 to 168 | O=C(CCCN1CCOCC1)c1ccc2c(c1)Cc1cc(C(=O)CCCN3CCOCC3)ccc1-2
28 | 263 | CCOC(=O)[C@@H]1C[C@H]2C[C@H](COCC#N)CC[C@H]2CN1C(=O)OC (racemic)
29 | 136 | CCCN(CCN1CCN(c2ccccc2OC)CC1)C1CCc2ncsc2C1 (stereo not drawn)
30 | 160 to 176 | CCOc1ccccc1C(=O)Nc1ccc(C(=O)N2Cc3cccn3Cc3ccccc32)cc1
31 | 35 to 36 | CCOC(=O)C(CO)c1ccc(OCC)cc1 (stereo not drawn)
32 | 207 to 208 | Cc1coc(NC(=S)Nc2cc(Cl)ccc2C)n1
33 | 153 to 154 | CC(CO)n1nnc2cc3c(=O)n(C(C)Cn4ncnn4)nnc3cc2c1=O (stereo not drawn)
34 | 102 to 103 | c1cn(CCCc2ccc(OCc3coc(-c4ccsc4)n3)cc2)cn1
35 | 79 to 83 | CCn1c2ccc3ccccc3c2c2cccc(C)c21
36 | 252 | CS(=O)(=O)c1ccc(Cl)c(-c2n[nH]c3nc(Oc4ccc(F)cc4F)ncc23)c1
37 | 80 to 81 | O=C(NCCCCO)OCc1ccccc1
38 | 166 to 169 | COc1c(Cl)ccc(-c2cc(N)c(Cl)c(C(=O)NO)n2)c1F
39 | 257 to 260 | N#Cc1c(-c2cccc(N)c2)cc(-c2ccccc2O)nc1NC(=O)c1ccsc1
40 | 178 to 180 | CCn1c(=O)c(C)cc2cnc(Nc3ccccc3)nc21
41 | 256 to 259 | O=c1c2c[nH]c3c(c-2nn1-c1ccc(Cl)cc1)CN(CCc1ccccc1)CC3
42 | 202 to 204 | Oc1ccc(C2=C(c3ccc(OCCCCCI)cc3)c3ccc(O)cc3CCC2)cc1
43 | 141 to 143 | CCOC(=O)C1=C(C)NC(C)=C(C(=O)OCC)C1c1cc([N+](=O)[O-])ccc1OCCCCNCC(O)COc1ccccc1 (stereo not drawn)
44 | 109 to 111 | O=C(O)C1CCCN1C(=O)COc1ccccc1 (stereo not drawn)
45 | 216 to 218 | CCOC(=O)c1cn2c3c(cc(CN4CCOCC4)cc3c1=O)OCC2
46 | 93 | CCCCNC(=S)Nc1onc2c1CCC2

Row | melting point [°C] | Structure (SMILES)
47 | 152 to 154 | Cc1ccc(-c2nnc(N3CCC(CO)CC3)nc2-c2ccc(C)cc2)cc1
48 | 239 to 240 | CC(C)n1nc(-c2sc(Nc3cccc4ccccc34)nc2-c2ccccc2)ccc1=O
49 | 101 | CN1CCC(c2c[nH]c3ccc(C(=O)c4ccccc4)cc23)CC1
50 | 199 to 201 | CCOC(=O)c1cc(NCc2ccccc2)c(Nc2ccc3ccccc3c2)c(S(N)(=O)=O)c1
51 | 225 | CC(=O)NC(=Cc1c[nH]c2cc(Cl)ccc12)C(=O)O
52 | 157 to 158 | O=C(O)c1cccc(NC(=S)Nc2ccc3c(Cl)c(OCCBr)oc(=O)c3c2)c1
53 | 186 to 189 | COc1cc(Nc2c(C#N)cnc3cc(-c4cnc(C=O)n4C)ccc23)c(Cl)cc1Cl
54 | 176 to 177 | CCOC(=O)Cn1c(=S)c2cc(C)ccc2n(Cc2ccc(Cl)c(Cl)c2)c1=O
55 | 52 to 54 | NC(=O)OCC1COC(C(F)(F)F)(C(F)(F)F)O1 (stereo not drawn)
56 | 132 to 134 | COC1CCN2C(=O)c3cccc([N+](=O)[O-])c3C2C1 (stereo not drawn)
57 | 115 | CC(=O)c1c(Cl)cccc1N1CCN(CCCCOc2ccc3c(n2)NC(=O)CC3)CC1
58 | 117 to 118 | CC1=C(c2ccccc2)C(=O)N(C(C)(C)c2cccc(Cl)c2)CC1
59 | 198 | Oc1ccc(Nc2cc(-c3cn(C(c4ccccc4)(c4ccccc4)c4ccccc4)nc3-c3ccccn3)ccn2)cc1
60 | > 240 | CC(C)(C)C(=O)Nc1cc2c(O)n(I)cnc-2n1
61 | 210 | CC[Si](C#Cc1c2cc3ccccc3cc2c(C#C[Si](CC)(CC)CC)c2cc3ccccc3cc12)(CC)CC
62 | 114 to 116 | CC(NC(=O)C(NC(=O)OCC1c2ccccc2-c2ccccc21)C(Cc1ccccc1)C(=O)O)C(=O)O (stereo not drawn)
63 | 132 to 137 | N=C(NN=Cc1ccc(OC(F)(F)C(F)F)cc1)NN=Cc1ccc(C(F)(F)F)cc1
64 | 59 to 61 | CCN(C)C(=O)C(C)n1cc(C)c(-c2ccccc2)n1 (stereo not drawn)
65 | 213 to 215 | C[C@@H](n1ncn(-c2ccc(-n3nccn3)cc2)c1=O)[C@](O)(Cn1cncn1)c1ccc(F)cc1F
66 | 140 to 142 | COc1nc(NN)c(C(F)(F)F)cc1Cl
67 | 172 to 174 | CCCCCC1(C(=O)Nc2ccc(C(=O)O)cn2)CC2=C(C1)C(C)(C)CCC2(C)C
68 | 158 to 160 | N[C@@H](Cc1ccccc1)C(=O)NC(=O)OCc1ccccc1
69 | 192 to 194 | CCCCc1ncc(/C=C(\Cc2cccs2)C(=O)O)n1Cc1ccc(OCC(=O)O)cc1

Row | melting point [°C] | Structure (SMILES)
70 | 148 to 151 | O=C(Nc1cccc(Cc2nnn[nH]2)c1)C(F)(F)C(F)(F)C(F)(F)F
71 | 217 to 220 | O=C(c1ccccc1)N1CCN(c2ccccc2)CCn2c1nc1ccccc12
72 | 40 to 45 | CS(=O)(=O)OCCC(CCOS(C)(=O)=O)C(F)(F)F
73 | 69 to 71 | O=C1c2ccccc2C(=O)N1CCc1cccc(C(F)(F)F)c1
74 | 125 | CCCN(CCCc1c[nH]c2ccc(F)cc12)C1COc2c(F)ccc(C(N)=O)c2C1 (stereo not drawn)
75 | 129 to 130 | COc1cccc(CC(=O)O)c1OCc1cc(OC(C)C)nn1Cc1ccc2ccccc2n1
76 | 127 to 129 | CCCNC(=NS(=O)(=O)N(C)C)N1CC(c2ccccc2)C(c2ccc(Cl)cc2)=N1 (stereo not drawn)
77 | 125 to 127 | Cc1ccc(CN[C@H](CO)Cc2ccccc2)cc1
78 | 114 to 115 | COC(=O)[C@H](COC(C)(C)C)NC(=O)[C@@H](NC(=O)[C@H](Cc1ccccc1)NC(=O)[C@@H](NC(=O)OCc1ccccc1)[C@@H](C)OC(C)(C)C)[C@@H](C)OC(C)(C)C
79 | 114 to 116 | CCCCNC(=O)c1ccc(Cl)c(-n2nc(CCCC)n(Cc3ccc(Br)cc3F)c2=O)c1
80 | 159 to 160 | CN(C(=O)c1ccc(N)cc1)c1ccccc1N
81 | 77 | COC(=O)c1cccc2nc(-c3ccccc3)oc12
82 | 97 to 100 | CCSC(=NC(C)=O)Nc1c(Cl)cccc1Cl
83 | 110 | CN(C)CCNc1ncc(C(=O)N(C)Cc2cc(C(F)(F)F)cc(C(F)(F)F)c2)c(-c2ccccc2)n1
84 | 137 to 139 | CCOC(=O)COc1ccc(C(=O)CCC(=O)O)cc1Cl
85 | 139 to 141 | N#Cc1ccc(C(F)(F)F)cc1NN=Nc1ccccc1
86 | 270 to 272 | Cc1cc(=O)[nH]nc1-c1ccc2c(c1)CCC1(CCN(C3CCC3)CC1)O2
87 | 158 | O=Cc1cccn1CCN1CCC(=C2c3ccccc3CCn3ccnc32)CC1
88 | 191 to 192 | Cc1cc(C(=O)N(C2CCCCC2)C2CCCC2)ccc1Cn1cnc2ncccc21
89 | 60 | CCOC(=O)C1COc2cc(C(C)=O)ccc2O1 (stereo not drawn)
90 | 170 to 171 | CCOC(=O)C1=C(C(Br)Br)Nc2ncnn2C1C (stereo not drawn)

Row | Structure (SMILES) | melting point [°C]
91 | CNCc1nc(-c2ncn3c2[C@@H]2CCN2C(=O)c2cc(F)ccc2-3)no1 | 155 to 160
92 | O=C1ONCC12CCOc1ccc(F)cc12 (stereo not drawn) | 153 to 155
93 | CC1(C)CCC(C)(C)c2c(O)cc(Br)cc21 | 93
94 | O=C(O)CCSC1c2cc(OCc3ccc4ccc(Cl)cc4n3)ccc2OCc2c(-c3nnn[nH]3)cccc21 (stereo not drawn) | 122 to 125
95 | CC(=O)OC1CC2CCC3C(CCC4(C)C(O)C(N5CCCC5)CC34)C2(C)CC1N1CCOCC1 (stereo not drawn) | 112 to 118
96 | CC1(C)OCc2cccc(Cc3c[nH]cn3)c2O1 | 160 to 170
97 | CCNc1ccc2[nH]cc(C3CCN(C)CC3)c2n1 | 132 to 134
98 | CCOC(=O)C1=C(CCl)N2CCOC2(C)C(C(=O)OC)C1c1ccccc1Cl (stereo not drawn) | 142 to 143
